Laboratory results taken from patent publication US9510570B2, “CD81 and OCLN double transgenic mouse and its construction methods” (WUHAN INSTITUTE OF VIROLOGY, CAS, priority 2013, dated 2016).

System: HCV
Assay: Pharmacodynamic evaluation of antiviral drug in C/O^Tg mice by acute HCV infection (HCV RNA copies by qRT-PCR)
Format: in vivo, C/O^Tg male mice
Conditions: for viral load in the peripheral blood: started 1 week after HCV injection
Description: Plasmid pJ399EM was transcribed in vitro (Han et al., 2009) to obtain a RNA, and then the RNA was electroporated into Huh7.5.1 cells (Pasteur Institute) for virus production during 96 hours and for collection, followed by ultrafiltration and purification to obtain HCV. The C/O^Tg double transgenic mice or the wile type mice were injected at tail-vein with HCV (TCID50=1×10^8/mL) within 1-2 minutes. The serum or liver tissue of the C/O^Tg double transgenic mice or the wile type mice were collected respectively at indicated time 0 hour to 12 months after infection. HCV RNA level in serum (genomes/mL) and liver (genomes/g) were measured by qRT-PCR. The program was performed as follows: 50° C. for 30 minutes, 95° C. for 10 minutes, followed by 50 cycles at 95° C. for 30 seconds, 58° C. for 30 seconds, and 72° C. for 30 seconds. Primers used for detection were as follows: sense (forward primer): […] (represented by SEQ ID NO. 5); anti-sense (reverse primer): […] (represented by SEQ ID NO. 6). The viral load in serum (genomes/mL) of the wild type mice after injection was: 53746900±747977 (12 hours), 25791242±8626787 (2 days), 7026±2797 (4 days), 433±73 (1 week), and then the viral copies in peripheral blood of wild type mice was undetectable after one week. The viral load in peripheral blood (genomes/mL) of the C/O^Tg double transgenic mice after injection was: 3598678±3016340 (12 hours), 1607875±1304933 (2 days), 228942±174178 (4 days), 64505±6821 (1 week), 67622±4612 (2 weeks), 33671±13347 (3 weeks), 6921±4272 (1 month), 6739±4783 (2 months), 403±95 (3 months), 534±125 (4 months), 1375±198 (6 months), 4781±2969 (10 months), 2067±277 (12 months). […] The viral copies cannot be detectable in liver of the wile type mice after injection. The viral copies in the liver (genomes/g) of the C/O^Tg double transgenic mice after injection was: 149676500±26422459.09 (12 hours), 68863260±26554660 (2 days), 30167166±14023164 (4 days), 48183923±49326087 (1 week), 5221675±782099 (2 weeks), 4723475±570250 (3 weeks), 5649760±3372903 (1 month), 3597135±2671267 (2 months), 1831199±34834 (3 months), 3055570±565440 (4 months), 10729851±3954535 (6 months), 14392085±1902774 (10 months), 15543000±124774 (12 months). […] Meanwhile, the liver tissues were used for pathological analysis (H&E stain, Masson's stain), ultrasound, CT and other non-invasive imaging analysis to assess hepatitis, liver damage (fibrosis and cirrhosis) and other typical HCV pathology caused by HCV infection. The double transgenic mice infected by HCV express mild hepatitis symptoms (most ALT<40). The ALT level of the wild type mice was (U/L): 17.8±11.08 (uninfected), 10.5 0.51 (12 hours), 7.0±1.42 (2 days), 29.5±9.19 (4 days), 6.6±3.54 (1 weeks), 28.2±8.84 (2 weeks), 17.7±13.33 (1 month), 27.9±1.69 (2 months), 26.5±0.70 (3 months), 37.4±12.90 (4 months), 27.3±6.01 (10 months), 16.5±6.29 (12 months). The ALT level of the C/O^Tg double transgenic mice was (U/L): 17.8±11.01 (uninfected), 7.8±6.72 (12 hours), 28.0±1.25 (2 days), 57.3±3.88 (4 days), 16.3±7.72 (1 week), 61.0±5.65 (2 week), 21.2±11.16 (1 month), 19.6±0.68 (2 months), 27.4±10.25 (3 months), 36.3±4.06 (4 months), 35.7±5.44 (6 months), 19.5±3.79 (10 months), 232.3±26.89 (12 months). […] The prealbumin levels of the wild type mice after injection were maintained at normal levels (20˜30 mg/L), but the prealbumin levels of the C/O^Tg double transgenic mice cannot be detectable 4 days after infection. […]

Structure (SMILES)	viral copies in the liver (Telaprevir 200 mg/kg i.p. daily, 1 week after Telaprevir injection)	viral load in the peripheral blood (Ribavirin 20 mg/kg i.p. daily, treatment for 1 week)	viral load in the peripheral blood (Ribavirin 20 mg/kg i.p. daily, treatment for 4 weeks)	viral copies in the liver (Ribavirin 20 mg/kg i.p. daily, 1 week after Ribavirin injection)	viral copies in the liver (Ribavirin 20 mg/kg i.p. daily, 4 weeks after Ribavirin injection)
CCC[C@H](NC(=O)[C@@H]1[C@H]2CCC[C@H]2CN1C(=O)[C@@H](NC(=O)[C@@H](NC(=O)c1cnccn1)C1CCCCC1)C(C)(C)C)C(=O)C(=O)NC1CC1 [Telaprevir]	273±301 genomes/mg				
NC(=O)c1ncn([C@@H]2O[C@H](CO)[C@@H](O)[C@H]2O)n1 [Ribavirin]		cannot be detected	cannot be detected	260±226 genomes/mg	894±639 genomes/mg
